“Also recorded” adds a separate entry of the source.
What was measured:
[1] = bioavailability of 17 β-estradiol in rats via intravenous, nasal and intraduodenal/oral routes (TUE, E2, E1 in blood); type: in vivo, Sprague-Dawley male rats
Method: (§1) Sprague-Dawley male rats, each weighing about 270 grams, were used in the progesterone study. For nasal administration, the rats were anesthetized using sodium pentobarbital (50 mg/kg) and the drug was administered to the nasal cavity by means of a micropipet at dosage levels of 50 μg, 100 μg and 150 μg/rat of [4-^14 C]-progesterone (~8.5 μCi/rat) in 0.1 ml of isotonic saline containing 1-2% Tween 80 as a solubilizing agent, according to the procedure described by Hirai et al, the 98th Annual Meeting of Pharmaceutical Society of Japan, Okayama, April 1978, except that the end of the tube leading from the esophagus to the nasal cavity was closed and the drug was administered to the nostrils which were then closed with an adhesive agent. For oral (intraduodenal) administration, the rats were anesthetized and the abdomen of each rat was opened through a midline incision and a 50 μg/rat dose of the drug ([4-^14 C]-progesterone in 0.1 ml isotonic saline with 1-2% Tween 80) was injected directly through the duodenum. For intravenous administration, the rats were anesthetized and the drug was injected through the femoral vein at dosage levels of 50 μg, 100 μg and 150 μg/rat of [4-^14 C]-progesterone in 0.1 ml of isotonic saline containing 1-2% Tween 80. Blood was sampled periodically from the […] after IV and nasal administration, and from the tail vein after ID administration. Blood levels of progesterone were determined by thin layer chromotography.
Sprague-Dawley male rats, each weighing approximately 270 grams, were given dosages of 5 μg, 10 μg and 20 μg/rat of [6,7-^3 H] […] Blood samples were taken periodically as described in the progesterone study and assayed for estradiol (E2), estrone (E1) and total unconjugated estrogens (TUE).

[2] = by mouth; rapid metabolism in intestinal epithelium and liver; cited from earlier work
[3] = bioavailability of progesterone in rats after intravenous, nasal and intraduodenal/oral administration; type: in vivo, Sprague-Dawley male rats
Method: as §1

C[C@]12CC[C@@H]3c4ccc(O)cc4CC[C@H]3[C@@H]1CC[C@@H]2O [17 β-estradiol, estra-1,3,5(10)-triene-3,17 β-diol]
absorption by the nasal mucosa ([1]; nasal): rapidly absorbed by the nasal mucosa; also recorded: rapidly absorbed from the nasal mucosa into systemic blood without extensive intestinal or first pass metabolism
nasal vs oral bioavailability of E2 ([1]; rat, in vivo): 13.23-21.74 times
nasal vs oral bioavailability of TUE ([1]; rat, in vivo): 2.26-2.83 times
bioavailability ([1]; rat, in vivo, E2 bioavailability relative to corresponding IV doses): 50.5 to 83.9%
bioavailability ([1]; rat, in vivo, po, E2 AUC ratio vs. IV): 3.8%
bioavailability ([1]; rat, in vivo, po, E2 bioavailability relative to corresponding IV doses): 3.1 to 5%

CC(=O)[C@H]1CC[C@H]2[C@@H]3CCC4=CC(=O)CC[C@]4(C)[C@H]3CC[C@]12C [progesterone, pregn-4-ene-3,20-dione]
oral effectiveness [2]: not effective by mouth
nasal bioavailability vs oral bioavailability ([3]; 50 μg dosage level): 85.75 times
area under the curve as a function of dose ([3]; IV and nasal routes, 50, 100, 150 μg, FIG. 2): directly proportional to the dose administered
area under the curve, intravenous vs nasal (two tailed t-test) ([3]; at each dose): not significantly different, even at the 0.001 level
absorption from the nasal mucosa ([3]; nasal): very rapidly absorbed from the nasal mucosa; also recorded: rapidly absorbed from the nasal mucosa into the systemic circulation without first pass metabolism; also recorded: rapidly absorbed from the nasal mucosa into systemic blood without extensive intestinal or first pass metabolism
nasal bioavailability vs intravenous bioavailability ([3]; nasal vs intravenous): equivalent
nasal bioavailability vs oral bioavailability (in words) ([3]; nasal vs oral): vastly superior
Tmax ([3]; rat, in vivo): < 7 min
bioavailability ([3]; rat, in vivo, iv, AUC ratio Nasal/IV): 103%
bioavailability ([3]; rat, in vivo, oral bioavailability relative to equivalent IV dose): 1.2%

— patent US4383993A, “Nasal dosage forms containing natural female sex hormones” (priority 1981, dated 1983)
